The source of these data is PubChem BioAssay (NCI).

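A five-concentration, 48-hour dose response in 96-well plates underlies each endpoint, interpolated linearly between surrounding concentrations. TGI marks complete inhibition of growth.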 Some results are limits rather than exact numbers.

Test systems include SF-295 CNS; OVCAR-5 ovarian; 786-0 renal; MDA-N; HCT-116 colon; OVCAR-8 ovarian; RPMI-8226 leukemia; UACC-257 melanoma; HOP-92 NSCLC; SW-620 colon; SF-539 CNS; HT29 colon; K-562 leukemia; KM12 colon; SF-268 CNS; MALME-3M melanoma; HCC-2998 colon; NCI/ADR-RES ovarian; LOX IMVI melanoma.
Holding throughout (assay): NCI anticancer screen, dose series, 48 h

Turning to `CC1C[C@]2(C)C(=NCCN)Nc3ccccc3[C@@H]2N(C)c2ccccc21` (some centres undefined), the TGI with SF-295 CNS is 32 µM; in the experiment with OVCAR-5 ovarian it was 27.4 µM; with 786-0 renal it was 24.6 µM; with MDA-N it was 27.8 µM; with HCT-116 colon, 21 µM; in the experiment with OVCAR-8 ovarian, 27.9 µM. Further, the TGI in the experiment with RPMI-8226 leukemia is 47.4 µM; with UACC-257 melanoma, 14.8 µM; in the experiment with HOP-92 NSCLC it was 9.49 µM; with SW-620 colon it was 35.9 µM; with SF-539 CNS it was 25.9 µM; with HT29 colon, 13.2 µM. The TGI in the experiment on K-562 leukemia was found to be 40.2 µM; in the experiment on KM12 colon it was 30 µM; with SF-268 CNS it was 30.4 µM; in the experiment with MALME-3M melanoma it was 9.64 µM; in the experiment on HCC-2998 colon it was 9.69 µM; in the experiment on NCI/ADR-RES ovarian, 59 µM. Moreover, the TGI in the experiment on LOX IMVI melanoma was found to be 28.2 µM.
Consider `O=C(Oc1cccnc1)c1cc2cc(CCl)ccc2oc1=O`, for which the TGI was above 100 µM in the experiment with SF-295 CNS; 64.6 µM with OVCAR-5 ovarian; 36.1 µM in the experiment with 786-0 renal; above 100 µM in the experiment on MDA-N; 38.7 µM in the experiment with HCT-116 colon; above 100 µM with OVCAR-8 ovarian. Besides, the TGI in the experiment with RPMI-8226 leukemia is 66 µM; in the experiment on UACC-257 melanoma it was 98.7 µM; in the experiment with HOP-92 NSCLC it was 36.9 µM; in the experiment on SW-620 colon, above 100 µM; with SF-539 CNS, above 100 µM; with HT29 colon, 39.9 µM. The TGI in the experiment with K-562 leukemia was 40.6 µM; in the experiment on KM12 colon, above 100 µM; with SF-268 CNS, 45.3 µM; with MALME-3M melanoma it was 54.9 µM; in the experiment on HCC-2998 colon, above 100 µM; with NCI/ADR-RES ovarian, 76.6 µM. The compound also registered a TGI in the experiment on LOX IMVI melanoma of 44.7 µM.
For `CC(C(=O)OCc1ccccc1)(c1ccco1)N1C(=O)OC(c2ccccc2)C1c1ccccc1` (centres undefined), the TGI with SF-295 CNS, in the experiment with OVCAR-5 ovarian, with 786-0 renal, in the experiment with MDA-N, with HCT-116 colon and with OVCAR-8 ovarian was above 100 µM in each case. Also, the TGI with RPMI-8226 leukemia, in the experiment with UACC-257 melanoma, in the experiment with HOP-92 NSCLC, in the experiment on SW-620 colon, in the experiment with SF-539 CNS and in the experiment with HT29 colon was above 100 µM each time. In addition, the TGI with K-562 leukemia, in the experiment with KM12 colon, with SF-268 CNS, in the experiment with MALME-3M melanoma, with HCC-2998 colon and in the experiment on NCI/ADR-RES ovarian was above 100 µM each time. In the experiment with LOX IMVI melanoma, this compound displayed a TGI above 100 µM.
`O=C1NC(=O)C(c2c[nH]c3ccccc23)=C1c1cn(C(c2ccccc2)(c2ccccc2)c2ccccc2)cn1`: the TGI in the experiment on SF-295 CNS worked out at 19.8 µM; with OVCAR-5 ovarian, 23.1 µM; in the experiment with 786-0 renal it was 22.3 µM; in the experiment with MDA-N, 17.9 µM; with HCT-116 colon, 13.1 µM; in the experiment on OVCAR-8 ovarian, 28.2 µM. Also, the TGI was found to be 10.4 µM in the experiment with RPMI-8226 leukemia; 26.6 µM with UACC-257 melanoma; 21.9 µM in the experiment on HOP-92 NSCLC; 30 µM with SW-620 colon; 35.8 µM in the experiment on SF-539 CNS; 13.3 µM in the experiment with HT29 colon. The TGI with K-562 leukemia turned out to be 28.7 µM; in the experiment with KM12 colon, 13.5 µM; in the experiment on SF-268 CNS, 33.2 µM; with MALME-3M melanoma, 23.2 µM; in the experiment on HCC-2998 colon it was 16 µM; in the experiment with NCI/ADR-RES ovarian it was 22 µM. The same compound displayed a TGI with LOX IMVI melanoma of 22.2 µM.
For `O=c1oc2ccccc2cc1-c1cn2ccccc2n1`, the TGI in the experiment on SF-295 CNS came to 13.5 µM; with OVCAR-5 ovarian it was 46.7 µM; with 786-0 renal it was 13.4 µM; in the experiment with MDA-N it was 19.8 µM; in the experiment on HCT-116 colon, 30.1 µM; in the experiment with OVCAR-8 ovarian, 10.7 µM. The TGI was 47.3 µM in the experiment on RPMI-8226 leukemia; 14.3 µM with UACC-257 melanoma; above 100 µM in the experiment with HOP-92 NSCLC; 31.6 µM with SW-620 colon; 10.6 µM in the experiment with SF-539 CNS; 51.7 µM in the experiment with HT29 colon. For the same compound, the TGI in the experiment with K-562 leukemia is above 52.6 µM; in the experiment on KM12 colon it was 37.2 µM; with SF-268 CNS, 13.2 µM; in the experiment with MALME-3M melanoma, 14.7 µM; in the experiment on HCC-2998 colon, 39.4 µM; in the experiment on NCI/ADR-RES ovarian it was 11.9 µM. Further, the TGI in the experiment on LOX IMVI melanoma was found to be 33.4 µM.
With `COC(=O)[C@H](Cc1c[nH]c2ccccc12)NC(=O)c1ccc(CNC(=O)/C(C)=C/c2ccccc2)cc1`, the TGI in the experiment on SF-295 CNS is above 100 µM; in the experiment with OVCAR-5 ovarian, above 100 µM; with 786-0 renal, above 100 µM; in the experiment with MDA-N it was 40.3 µM; in the experiment with HCT-116 colon, above 100 µM; with OVCAR-8 ovarian it was above 100 µM. The TGI in the experiment with RPMI-8226 leukemia is above 100 µM; in the experiment with UACC-257 melanoma, 33.5 µM; in the experiment with HOP-92 NSCLC, 34.3 µM; in the experiment with SW-620 colon, above 100 µM; with SF-539 CNS, above 100 µM; in the experiment with HT29 colon, above 100 µM. For the same compound, the TGI in the experiment with K-562 leukemia is above 100 µM; in the experiment with KM12 colon, above 100 µM; in the experiment with SF-268 CNS it was above 100 µM; in the experiment with MALME-3M melanoma, 25.6 µM; in the experiment on HCC-2998 colon it was 73 µM; in the experiment on NCI/ADR-RES ovarian, above 100 µM. In the experiment on LOX IMVI melanoma, this compound yielded a TGI above 100 µM.
